Laboratory results taken from patent US4260745A, “3-Halo cephalosporins” (Eli Lilly and Company, priority 1979, dated 1981).
In brackets after ≈: the same amount, converted by molar mass. Read-outs that look alike come from different tables or passages of the source.

Assays:
Format in all cases: cell-based
[1] = tested on: Penicillin Resistant Staphylococcus; assay: Gradient Plate technique, MIC; settings: read-out: Minimum Inhibitory Concentration
Excerpt: The following Table II lists the minimum inhibitory concentration (MIC) for 7-[2-(2-thienyl)acetamido]-3-chloro-3-cephem-4-carboxylic acid against penicillin resistant Staphylococcus both in the presence of and absence of serum. The MIC values were obtained by the Gradient Plate technique carried out essentially as described by Bryson and Szybalski, Science, 116, 45 (1952). […]

Escherichia coli [2] = assay: standard disc-plate method, zone of inhibition; settings: Table I, read-out: Zone of Inhibition (diameter in mm)
Excerpt: (§1) The in vitro antimicrobial activity of the 3-halo cephalosporins is illustrated by the data in the following tables. Table I contains the antimicrobial activity for 7-[2-(2-thienyl)acetamido]-3-chloro-3-cephem-4-carboxylic acid obtained in the standard Disc-plate method. The numerical values are the diameter in millimeters of the zones of inhibition observed with the named organisms.
(§2) In Table IV below, the in vitro antimicrobial activity of 7-[2-(2-thienyl)acetamido]-3-bromo-3-cephem-4-carboxylic acid is presented for several illustrative microorganisms. The data presented were obtained in the standard disc-plate method with the numerical values recording the diameter in millimeters of the zones of inhibition observed with the named microorganisms.

Mycobacterium avium = assay: standard disc-plate method, zone of inhibition; settings: 1.0 mg/ml, Table I, read-out: Zone of Inhibition (diameter in mm)
Excerpt: as §1, §2

Sarcina lutea = assay: standard disc-plate method, zone of inhibition; settings: Micrococcus luteus, Table I, read-out: Zone of Inhibition (diameter in mm)
Excerpt: as §1, §2

Klebsiella pneumoniae [3] = assay: standard disc-plate method, zone of inhibition; settings: Table I, read-out: Zone of Inhibition (diameter in mm)
Excerpt: as §1, §2

Proteus vulgaris = assay: standard disc-plate method, zone of inhibition; settings: 1.0 mg/ml, Table I, read-out: Zone of Inhibition (diameter in mm)
Excerpt: as §1, §2

Staphylococcus aureus = assay: standard disc-plate method, zone of inhibition; settings: Table I, read-out: Zone of Inhibition (diameter in mm)
Excerpt: as §1, §2

Bacillus subtilis = assay: standard disc-plate method, zone of inhibition; settings: Table I, read-out: Zone of Inhibition (diameter in mm)
Excerpt: as §1, §2

[4] = tested on: Methicillin resistant Staphylococcus; assay: Gradient Plate technique, MIC; settings: Clinical Isolate X400 (methicillin resistant)
Escherichia coli [5] = assay: standard disc-plate method, zone of inhibition; design: key: H: hazy zone of inhibition; Tr: trace zone of inhibition; settings: 0.01 mg/ml; Table I
Excerpt: as §1, §2

Escherichia coli [6] = assay: Gradient Plate technique, MIC; settings: read-out: Minimum Inhibitory Concentration
Excerpt: (§3) The following Table II lists the minimum inhibitory concentration (MIC) for 7-[2-(2-thienyl)acetamido]-3-chloro-3-cephem-4-carboxylic acid against penicillin resistant Staphylococcus both in the presence of and absence of serum. The MIC values were obtained by the Gradient Plate technique carried out essentially as described by Bryson and Szybalski, Science, 116, 45 (1952).
(§4) In Table III, below, the MIC values for the test compound of Tables I and II against representative gram-negative organisms is presented. The data were obtained by the Gradient Plate technique.
(§5) The minimum inhibitory concentrations for 7-[2-(2-thienyl)acetamido]-3-bromo-3-cephem-4-carboxylic acid against representative gram-negative bacteria is presented in Table VI. The data were obtained by the Gradient Plate Method.
(§6) Tables VII and VIII list the minimum inhibitory concentrations of the test compound effective against representative penicillin resistant Staphylococcus strains, while […] the MIC values obtained against representative gram-negative microorganisms. The data were obtained by the Gradient Plate method.

Shigella sp. = assay: Gradient Plate technique, MIC; settings: read-out: Minimum Inhibitory Concentration
Excerpt: as §3, §4, §5, §6

Salmonella heidelberg = assay: Gradient Plate technique, MIC; settings: Salmonella enterica, read-out: Minimum Inhibitory Concentration
Excerpt: as §3, §4, §5, §6

Pseudomonas aeruginosa = assay: Gradient Plate technique, MIC; settings: read-out: Minimum Inhibitory Concentration
Excerpt: as §3, §4, §5, §6

Aerobacter aerogenes = assay: Gradient Plate technique, MIC; settings: Klebsiella aerogenes, read-out: Minimum Inhibitory Concentration
Excerpt: as §3, §4, §5, §6

Klebsiella pneumoniae [7] = assay: Gradient Plate technique, MIC; settings: read-out: Minimum Inhibitory Concentration
Excerpt: as §3, §4, §5, §6

Serratia marcescens = assay: Gradient Plate technique, MIC; settings: read-out: Minimum Inhibitory Concentration
Excerpt: as §3, §4, §5, §6

Salmonella gallinarum = assay: standard disc-plate method, zone of inhibition; settings: Salmonella enterica, GALLINARUM, Table I, read-out: Zone of Inhibition (diameter in mm)
Excerpt: as §1, §2

[8] = tested on: Pseudomonas solanacearcum; assay: standard disc-plate method, zone of inhibition; settings: Pseudomonas, Table I, read-out: Zone of Inhibition (diameter in mm)
Excerpt: as §1, §2

bioautogram = assay: bioautogram
Procedure: To 110 ml. of methanol and 83 mg. of pre-reduced 5 percent palladium on carbon were added 83 mg. of p-nitrobenzyl 7-[2-(2-thienyl)acetamido]-3-fluoro-3-cephem-4-carboxylate. The mixture was hydrogenated at 53 psig. for one hour. The resulting mixture was filtered, the filtered catalyst was washed with methanol, and the methanol washings were added to the filtrate. The filtrate was then evaporated in vacuo. The residue was dissolved in ethyl acetate, and the ethyl acetate solution was extracted with dilute aqueous sodium bicarbonate. The sodium bicarbonate solution was washed with ethyl acetate, layered with ethyl acetate, and dilute aqueous HCl was added.

`O=C(Cc1cccs1)NC1C(=O)N2C(C(=O)O)=C(Cl)CS[C@H]12` (stereo partly drawn) [7-[2-(2-Thienyl)acetamido]-3-chloro-3-cephem-4-carboxylic acid] showed an MIC ([1]; Clinical Isolate V 32, No Serum) of 8.4 µg/mL (≈ 23.4 µM), an MIC ([1]; Clinical Isolate V 32, Serum) greater than 20 µg/mL and an MIC ([1]; Clinical Isolate V 41, No Serum) of 5 µg/mL (≈ 13.9 µM). For the same compound, the MIC ([1]; Clinical Isolate V 41, Serum) was 7 µg/mL (≈ 19.5 µM), the MIC ([1]; Clinical Isolate V 84, No Serum) was 0.8 µg/mL (≈ 2.23 µM) and the MIC ([1]; Clinical Isolate V 84, Serum) was 1 µg/mL (≈ 2.79 µM). It also gave an MIC ([1]; Clinical Isolate X 1.1, No Serum) of 0.2 µg/mL (≈ 0.557 µM), an MIC ([1]; Clinical Isolate X 1.1, Serum) of less than 0.1 µg/mL and a zone of inhibition at 100 µg/mL (Escherichia coli [2]; 0.1 mg/ml) of 19 mm. For the same compound, the zone of inhibition at 1000 µg/mL (Escherichia coli [2]; 1.0 mg/ml) was 24 mm, the zone of inhibition at 1000 µg/mL (Mycobacterium avium) was 14 mm and the zone of inhibition at 10 µg/mL (Sarcina lutea; 0.01 mg/ml) was 21 mm. It also gave a zone of inhibition at 100 µg/mL (Sarcina lutea; 0.1 mg/ml) of 28 mm, a zone of inhibition at 1000 µg/mL (Sarcina lutea; 1.0 mg/ml) of 37 mm and a zone of inhibition at 10 µg/mL (Klebsiella pneumoniae [3]; 0.01 mg/ml) of 13 mm. The zone of inhibition at 100 µg/mL (Klebsiella pneumoniae [3]; 0.1 mg/ml) was 27 mm, the zone of inhibition at 1000 µg/mL (Klebsiella pneumoniae [3]; 1.0 mg/ml) was 36 mm and the zone of inhibition at 1000 µg/mL (Proteus vulgaris) was 17 mm. The zone of inhibition at 10 µg/mL (Staphylococcus aureus; 0.01 mg/ml) was 20 mm, the zone of inhibition at 100 µg/mL (Staphylococcus aureus; 0.1 mg/ml) was 29 mm and the zone of inhibition at 1000 µg/mL (Staphylococcus aureus; 1.0 mg/ml) was 31 mm. The zone of inhibition at 10 µg/mL (Bacillus subtilis; 0.01 mg/ml) was 24 mm, the zone of inhibition at 100 µg/mL (Bacillus subtilis; 0.1 mg/ml) was 40 mm and the zone of inhibition at 1000 µg/mL (Bacillus subtilis; 1.0 mg/ml) was 48 mm. The “Minimum Inhibitory Concentration” value ([4]; Serum) was greater than 20 µg/mL, the MIC ([4]; Staphylococcus, No Serum, read-out: Minimum Inhibitory Concentration) was greater than 20 µg/mL and the “Zone of Inhibition (diameter in mm)” value (Escherichia coli [5]) was “Tr”. For the same compound, the MIC (Escherichia coli [6]) was 18.5 µg/mL (≈ 51.6 µM), the MIC (Shigella sp.) was 25 µg/mL (≈ 69.7 µM) and the MIC (Salmonella heidelberg) was 0.8 µg/mL (≈ 2.23 µM). It also gave an MIC (Pseudomonas aeruginosa) greater than 200 µg/mL, an MIC (Aerobacter aerogenes) of 0.8 µg/mL (≈ 2.23 µM) and an MIC (Klebsiella pneumoniae [7]) of 0.6 µg/mL (≈ 1.67 µM). The MIC (Serratia marcescens) was greater than 200 µg/mL, the zone of inhibition at 100 µg/mL (Salmonella gallinarum; 0.1 mg/ml) was 22 mm and the zone of inhibition at 1000 µg/mL (Salmonella gallinarum; 1.0 mg/ml) was 32 mm. The zone of inhibition at 100 µg/mL ([8]; 0.1 mg/ml) was 21 mm and the zone of inhibition at 1000 µg/mL ([8]; 1.0 mg/ml) was 28 mm.
In the case of `O=C(Cc1cccs1)NC1C(=O)N2C(C(=O)O)=C(F)CS[C@H]12` (stereo partly drawn) [7-[2-(2-Thienyl)acetamido]-3-fluoro-3-cephem-4-carboxylic acid], the “biological activity by bioautogram” value (bioautogram) is reported as “biologically active”.
